Data on six compounds can be found in patent publication US4367232A, “Piperidine derivatives” (Fordonal, S.A., priority 1976, dated 1983).

Common to all, as to assay type: in vivo
One assay concerns food intake (spaghetti). The assay can be described thus: Anorexia: inhibition of food intake (spaghetti) in screening test in the mouse. The following applies: 10 mg kg^-1 p.os. How it is done: (§1) Standard pharmaceutical tests have been run with mice and rats using compounds of this invention. The instant compounds have been compared with Clebopride hydrochloride, i.e., N-(1-benzylpiperid-4-yl)-2-methoxy-4-amino-5-chlorobenzamide hydrochloride, which is disclosed in co-pending U.S. patent application Ser. No. 558,908 filed Mar. 17, 1975, incorporated herein by reference.
^(c) Percentage inhibition of food intake (spaghetti) in screening
test at 10 mg kg^-1 p.os. in the mouse.

In assay [1] the test system is apomorphineinduced gnawing behaviour. The assay can be described thus: Inhibition of apomorphine-induced gnawing behaviour in the rat. The following applies: oral, approximate ED50, read-out: Anti-apomorphine: approximate oral ED50 value for inhibition of apomorphineinduced gnawing behaviour.
Text: as §1
^(b) Approximate oral ED50 value for inhibition of
apomorphineinduced gnawing behaviour in the rat.

The subject of a further assay is stomach emptying. The assay can be described thus: Stomach emptying in the rat. The following applies: 0.3, 1.0 or 3.0 mg kg^-1 i.p.
Text: as §1
^(d) Active at 0.3 (+++), 1.0 (++) or 3.0 (+) mg kg^-1 i.p. in
causing significant stomach emptying in the rat.

A word on the ED50: it is the dose that gives a 50% effect, or the effect in half of the subjects. Turning to `CCN(C(=O)c1cc(Cl)c(N)cc1OC)C1CCN(Cc2ccccc2)CC1.Cl` [R3'=H; R7'=C2H5, N-ethyl-N-(1-benzylpiperid-4-yl)-2-methoxy-4-amino-5-chlorobenzamide hydrochloride], the “Anorexia: percentage inhibition of food intake (spaghetti)” value (shortened to “Anorexia: percentage inhibition”) with food intake (spaghetti) amounted to 0%. Besides, in assay [1], the ED50 was about 300 mg/kg.

`COc1cc(N)c(Cl)cc1C(=O)NC1CCN(Cc2ccccc2)CC1.Cl` [Clebopride hydrochloride, N-(1-benzylpiperid-4-yl)-2-methoxy-4-amino-5-chlorobenzamide hydrochloride, reference compound]: the “Anorexia: percentage inhibition” value in the assay with food intake (spaghetti) is 84%. Further, the ED50 in assay [1] is 2.5 mg/kg.

Turning to `COc1cc(N)c(Cl)cc1C(=O)N(C)C1CCN(C(C)c2ccccc2)CC1` (stereo not shown) [R3'=CH3; R7'=CH3, N-methyl-N-[1-(1-phenylethyl)piperid-4-yl]-2-methoxy-4-amino-5-chlorobenzamide], in the assay on stomach emptying, the Stomach emptying amounted to 0. Moreover, the “Anorexia: percentage inhibition” value in the assay on food intake (spaghetti) is reported as 0%. In assay [1], the median effective dose (ED50) was over 300 mg/kg.

As for `COc1cc(N)c(Cl)cc1C(=O)NC1CC(C)N(Cc2ccccc2)C(C)C1` (stereo not shown) [R5'=2-Me; R6'=6-Me; R7'=H, N-(1-benzyl-2,6-dimethylpiperid-4-yl)-2-methoxy-4-amino-5-chlorobenzamide], in the assay with food intake (spaghetti), the “Anorexia: percentage inhibition” value turned out to be 89%. Besides, the ED50 in assay [1] is about 100 mg/kg.

On to `COc1cc(N)c(Cl)cc1C(=O)NC1CCN(Cc2ccccc2)CC1C` (stereo not shown) [R5'=3-Me; R7'=H, N-(1-benzyl-3-methylpiperid-4-yl)-2-methoxy-4-amino-5-chlorobenzamide], for which the “Anorexia: percentage inhibition” value in the assay with food intake (spaghetti) stood at 34%. In assay [1], the ED50 was determined as 58 mg/kg.

Turning to `COc1cc(N)c(Cl)cc1C(=O)N(C)C1CCN(Cc2ccccc2)CC1.Cl` [R3'=H; R7'=CH3, N-methyl-N-(1-benzylpiperid-4-yl)-2-methoxy-4-amino-5-chlorobenzamide hydrochloride], the “Anorexia: percentage inhibition” value with food intake (spaghetti) is listed as 0%. Also, in assay [1], the 50% effective dose (ED50) is over 300 mg/kg.
